Where a SMILES comes first, the peptide text is derived from it. Bridges are numbered along the chain shown (N, C = ends).
Legend:
[1] = test system: porcine coronary smooth muscles (constriction due to endothelin-1); experiment: Assay of constriction suppressing activity to porcine coronary smooth muscles; type: cell-based; details: Sample: constriction due to 10^-9 M ET-1 in the presence of 10^-5 sample; Control: constriction due to 10^-9 M ET-1; formula shown only as drawing 9
Method: Its tension was detected by a force displacement transducer UL-10GR (Minebea), and recorded by a polygraph (NEC Sanei). […] A tension of 1.25 to 1.5 g was applied to each of the strips, followed by equilibration for 1.5 hours. 60 mM KCl was repeatedly applied thereto at intervals of 30 minutes until the constriction response became constant. After additional equilibration for 1.5 hours, a sample for assay was given. The constriction of the strips was normalized by the constriction response of the individual strips to 60 mM KCl and statistically processed.

endothelin receptor = experiment: Assay of affinity for receptor (I125-ET-1 binding to porcine myocardial membrane fraction); details: ET-1 = 100
porcine coronary artery = type: cell-based; details: for Constrictor activity (Relative potency): ET-1 = 100; for Maximum Constriction (% 60 mM KCl): normalized to constriction response to 60 mM KCl

Row | SMILES | Suppressing activity to ET-1 [1] | Receptor binding activity (Relative potency) (endothelin receptor) | Constrictor activity (Relative potency) (porcine coronary artery) | Maximum Constriction (% 60 mM KCl) (porcine coronary artery)
1 | CC[C@H](C)[C@H](NC(=O)[C@H](CC(=O)O)NC(=O)[C@H](CC(C)C)NC(=O)[C@H](Cc1c[nH]cn1)NC(=O)[C@@H]1CSSC[C@H](N)C(=O)N[C@@H](CO)C(=O)N[C@@H](Cc2ccccc2)C(=O)N[C@@H](CO)C(=O)N[C@@H](CO)C(=O)N[C@@H](CC(C)C)C(=O)N[C@@H](CCSC)C(=O)N[C@@H](CC(=O)O)C(=O)N[C@@H](CCCCN)C(=O)N[C@@H](CCC(=O)O)C(=O)N[C@@H](Cc2ccccc2)C(=O)N[C@@H](C(C)C)C(=O)N[C@@H](Cc2ccc(O)cc2)C(=O)N[C@@H](Cc2ccccc2)C(=O)N1)C(=O)N[C@H](C(=O)N[C@@H](Cc1c[nH]c2ccccc12)C(=O)O)[C@@H](C)CC [Example 1, [Phe^3,11]-ET-1] (H-CSFSSLMDKEFVYFCHLDIIW-OH; disulfide 1-15) | 77 | 0.45 | < 0.3 | 9
2 | CC[C@H](C)[C@H](NC(=O)[C@H](CC(=O)O)NC(=O)[C@H](CC(C)C)NC(=O)[C@H](Cc1c[nH]cn1)NC(=O)[C@@H]1CSSC[C@H](N)C(=O)N[C@@H](CO)C(=O)N[C@@H](Cc2ccccc2)C(=O)N[C@@H](CO)C(=O)N[C@@H](CO)C(=O)N[C@@H](CC(C)C)C(=O)N[C@@H](CCSC)C(=O)N[C@@H](CC(=O)O)C(=O)N[C@@H](CCCCN)C(=O)N[C@@H](CCC(=O)O)C(=O)N[C@@H](C)C(=O)N[C@@H](C(C)C)C(=O)N[C@@H](Cc2ccc(O)cc2)C(=O)N[C@@H](Cc2ccccc2)C(=O)N1)C(=O)N[C@H](C(=O)N[C@@H](Cc1c[nH]c2ccccc12)C(=O)O)[C@@H](C)CC [Example 2, [Phe^3, Ala^11]-ET-1] (H-CSFSSLMDKEAVYFCHLDIIW-OH; disulfide 1-15) | 87 | 0.5 | < 0.1 | 10
3 | CC[C@H](C)[C@H](NC(=O)[C@H](CC(=O)O)NC(=O)[C@H](CC(C)C)NC(=O)[C@H](Cc1c[nH]cn1)NC(=O)[C@@H]1CSSC[C@H](N)C(=O)N[C@@H](CO)C(=O)N[C@@H](C)C(=O)N[C@@H](CO)C(=O)N[C@@H](CO)C(=O)N[C@@H](CC(C)C)C(=O)N[C@@H](CCSC)C(=O)N[C@@H](CC(=O)O)C(=O)N[C@@H](CCCCN)C(=O)N[C@@H](CCC(=O)O)C(=O)N[C@@H](Cc2ccccc2)C(=O)N[C@@H](C(C)C)C(=O)N[C@@H](Cc2ccc(O)cc2)C(=O)N[C@@H](Cc2ccccc2)C(=O)N1)C(=O)N[C@H](C(=O)N[C@@H](Cc1c[nH]c2ccccc12)C(=O)O)[C@@H](C)CC [Example 3, [Ala^3, Phe^11]-ET-1] (H-CSASSLMDKEFVYFCHLDIIW-OH; disulfide 1-15) | 56 | 0.1 | < 0.1 | 10

From patent US5306808A, “Peptide derivatives having vasodilating activity” (Takeda Chemical Industries, Ltd., priority 1991, dated 1994)
